Values of other authors as cited in patent US4927638A, “Etoposide solutions” (Bristol-Myers Company, priority 1988, dated 1990).

Columns and labels:
[1] = with water, ethanol, propylene glycol, isopropyl myristate, diethyl ether, acetone, corn oil, cottonseed oil, etc.
[2] = background statement
[3] = oral (capsules or solution), of that found after intravenous administration; patients

Structure (SMILES)	miscibility [1]	solubility in water [2]	oral bioavailability [3]
CO[C@H]1CO[C@H]2[C@@H]1OC[C@H]2OC [Dimethylisosorbide, dimethylisosorbide]	miscible		
COc1cc([C@@H]2c3cc4c(cc3[C@@H](O[C@@H]3O[C@@H]5CO[C@@H](C)O[C@H]5[C@H](O)[C@H]3O)[C@H]3COC(=O)[C@H]23)OCO4)cc(OC)c1O [Etoposide, 4'-demethylepipodophyllotoxin-9-(4,6-O(R)-ethylidine-β-D-glucopyranoside)]		only sparingly soluble	about 50%
